Source: ChEMBL document CHEMBL1201862, “PubChem BioAssay data set” (2004)
One block for each molecule: values may come before it. Active and inactive are the calls of the source.

Experiments:
[1] = target: Peroxisome proliferator-activated receptor alpha (Homo sapiens, UniProt Q07869); test: Late stage assay provider counterscreen for partial agonists of the peroxisome proliferator-activated receptor gamma (PPARg): Luminescence-based cell-based dose response assay for partial agonists of the peroxisome proliferator-activated receptor alpha (PPARA). [Related pubchem assays (depositor defined):AID1051, AID1300, AID1319, AID1679, AID1808, AID504446, AID504447, AID504452, AID504453, AID631]; assay type: functional
[2] = target: T1, Peroxisome proliferator-activated receptor gamma (Homo sapiens, UniProt P37231); test: PPARg transcriptional activation, reporter cells – cell-based, luminescence, assay provider, dose response (AID 504447); assay type: functional
T1 sequence (P37231 whole entry): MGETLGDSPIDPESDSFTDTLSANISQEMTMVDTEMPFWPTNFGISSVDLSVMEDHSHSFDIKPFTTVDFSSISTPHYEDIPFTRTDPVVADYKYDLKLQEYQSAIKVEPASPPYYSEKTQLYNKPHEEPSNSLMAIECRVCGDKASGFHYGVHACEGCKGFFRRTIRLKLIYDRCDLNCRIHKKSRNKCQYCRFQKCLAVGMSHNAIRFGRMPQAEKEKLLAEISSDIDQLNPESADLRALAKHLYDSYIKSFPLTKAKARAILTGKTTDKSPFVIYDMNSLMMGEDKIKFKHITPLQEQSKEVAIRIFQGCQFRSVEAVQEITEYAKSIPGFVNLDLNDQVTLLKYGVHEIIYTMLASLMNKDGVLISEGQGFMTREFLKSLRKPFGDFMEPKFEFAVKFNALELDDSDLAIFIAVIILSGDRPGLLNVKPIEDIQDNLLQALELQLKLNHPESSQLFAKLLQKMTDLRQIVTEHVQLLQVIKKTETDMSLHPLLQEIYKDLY

[3] = target: T1, Peroxisome proliferator-activated receptor gamma; test: competitive ligand displacement at PPARg – biochemical, TR-FRET, LanthaScreen, PPARg partial agonist project, dose response (AID 504446)
[4] = target: Signal transducer and activator of transcription 1-alpha/beta (Homo sapiens, UniProt P42224); test: STAT3 blockade with qPCR and toxicity readouts – cell-based, STAT1 panel, cytotoxicity, late-stage follow-up, panel member STAT1 Inhibition (AID 2078)
[5] = target: Signal transducer and activator of transcription 3 (Homo sapiens, UniProt P40763); test: STAT3 blockade with qPCR and toxicity readouts – cell-based, STAT1 panel, cytotoxicity, late-stage follow-up, panel member STAT3 Inhibition (AID 2078)
[6] = target: T2, Ubiquitin-conjugating enzyme E2 N (Homo sapiens, UniProt P61088); assay type: functional
T2 sequence (P61088 whole entry): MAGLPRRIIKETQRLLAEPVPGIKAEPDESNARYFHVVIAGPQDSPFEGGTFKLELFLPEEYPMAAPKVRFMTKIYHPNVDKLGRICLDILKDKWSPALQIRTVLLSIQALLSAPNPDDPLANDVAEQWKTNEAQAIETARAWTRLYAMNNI

Bcl-2-related protein A1 = target: T3, Bcl-2-related protein A1 (Mus musculus, UniProt Q07440); assay type: functional;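 also: confirmatory dose–response counterscreen on Bfl-1, used to check hits from a UBC13 polyubiquitin inhibitor campaign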
T3 sequence (Q07440 whole entry): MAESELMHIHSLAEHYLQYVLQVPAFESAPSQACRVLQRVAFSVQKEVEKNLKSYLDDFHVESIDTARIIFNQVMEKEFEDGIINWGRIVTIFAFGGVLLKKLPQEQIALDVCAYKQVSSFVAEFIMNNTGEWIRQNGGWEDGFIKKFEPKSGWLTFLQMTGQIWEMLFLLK

[7] = target: T2, Ubiquitin-conjugating enzyme E2 N; assay type: functional; remark: listed apart in the source

Sequence of Peroxisome proliferator-activated receptor alpha (Q07869 whole entry): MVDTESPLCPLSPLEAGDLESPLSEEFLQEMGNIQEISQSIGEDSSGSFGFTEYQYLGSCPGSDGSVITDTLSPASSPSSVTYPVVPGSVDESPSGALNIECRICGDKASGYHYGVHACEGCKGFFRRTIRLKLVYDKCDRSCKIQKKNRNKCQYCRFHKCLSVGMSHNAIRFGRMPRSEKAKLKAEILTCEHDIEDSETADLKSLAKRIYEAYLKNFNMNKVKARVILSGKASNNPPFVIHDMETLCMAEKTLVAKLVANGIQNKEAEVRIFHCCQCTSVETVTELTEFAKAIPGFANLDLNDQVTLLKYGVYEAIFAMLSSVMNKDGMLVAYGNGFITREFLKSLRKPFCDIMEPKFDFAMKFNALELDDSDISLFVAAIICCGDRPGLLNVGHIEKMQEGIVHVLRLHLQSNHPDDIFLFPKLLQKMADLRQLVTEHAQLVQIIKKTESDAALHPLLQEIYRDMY
Sequence of Signal transducer and activator of transcription 1-alpha/beta (P42224 whole entry): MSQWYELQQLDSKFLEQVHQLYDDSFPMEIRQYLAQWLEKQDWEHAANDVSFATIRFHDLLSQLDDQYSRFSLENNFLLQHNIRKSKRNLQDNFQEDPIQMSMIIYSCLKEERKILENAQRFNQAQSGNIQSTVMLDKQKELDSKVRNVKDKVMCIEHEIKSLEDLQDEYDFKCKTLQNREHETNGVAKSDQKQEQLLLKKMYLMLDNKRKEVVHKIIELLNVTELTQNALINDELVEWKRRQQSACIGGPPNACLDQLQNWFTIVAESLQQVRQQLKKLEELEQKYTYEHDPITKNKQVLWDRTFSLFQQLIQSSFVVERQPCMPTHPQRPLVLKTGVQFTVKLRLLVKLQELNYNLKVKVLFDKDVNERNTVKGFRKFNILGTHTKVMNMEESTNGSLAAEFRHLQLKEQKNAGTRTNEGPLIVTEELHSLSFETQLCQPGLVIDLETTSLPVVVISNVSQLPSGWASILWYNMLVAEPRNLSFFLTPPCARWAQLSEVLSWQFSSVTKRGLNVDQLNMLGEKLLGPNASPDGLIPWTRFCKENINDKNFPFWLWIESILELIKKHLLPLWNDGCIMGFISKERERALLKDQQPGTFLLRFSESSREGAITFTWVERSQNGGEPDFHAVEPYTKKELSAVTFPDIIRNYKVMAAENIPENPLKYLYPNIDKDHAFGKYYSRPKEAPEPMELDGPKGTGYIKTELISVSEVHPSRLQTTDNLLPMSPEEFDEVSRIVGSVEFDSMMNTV
Sequence of Signal transducer and activator of transcription 3 (P40763 whole entry): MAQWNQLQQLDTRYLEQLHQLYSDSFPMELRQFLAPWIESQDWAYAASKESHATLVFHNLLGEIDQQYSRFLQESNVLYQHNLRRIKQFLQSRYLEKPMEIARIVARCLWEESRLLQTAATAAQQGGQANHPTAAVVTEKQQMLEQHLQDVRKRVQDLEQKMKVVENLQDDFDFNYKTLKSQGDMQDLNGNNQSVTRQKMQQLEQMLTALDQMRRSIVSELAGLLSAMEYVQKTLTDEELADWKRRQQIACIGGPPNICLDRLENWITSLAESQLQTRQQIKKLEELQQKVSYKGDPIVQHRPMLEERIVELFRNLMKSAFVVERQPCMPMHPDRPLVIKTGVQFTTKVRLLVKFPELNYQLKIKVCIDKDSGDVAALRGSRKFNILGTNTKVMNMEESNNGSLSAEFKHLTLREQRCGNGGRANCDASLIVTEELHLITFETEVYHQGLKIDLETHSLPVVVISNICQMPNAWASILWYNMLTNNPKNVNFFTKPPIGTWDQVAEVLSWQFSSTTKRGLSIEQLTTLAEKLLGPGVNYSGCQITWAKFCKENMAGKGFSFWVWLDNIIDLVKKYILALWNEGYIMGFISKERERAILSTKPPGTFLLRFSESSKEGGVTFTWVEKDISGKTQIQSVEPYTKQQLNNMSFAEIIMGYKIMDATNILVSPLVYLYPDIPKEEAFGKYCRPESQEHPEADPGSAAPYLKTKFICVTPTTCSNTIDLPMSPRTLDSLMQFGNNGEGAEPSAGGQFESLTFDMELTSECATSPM

EC50 [1]: 0.12 µM (active)
EC50 [2]: 3.2 µM (active)
IC50 [3]: 3.2 µM (active)
SMILES: CCCCOC(=O)CCN1C(=O)/C(=C/c2ccccc2)SC1=S

SMILES: O=C(c1ccc(F)cc1)C1CCN(c2ncnc3sccc23)CC1
IC50 [4]: > 55.7 µM (inactive)
IC50 [5]: 1.68 µM (active)

IC50 [6]: > 20 µM (inactive)
IC50 (Bcl-2-related protein A1): > 20 µM (inactive)
IC50 [7]: 14.9 µM (active)
SMILES: CCOC(=O)c1nn(-c2ccccc2)c(=O)cc1OCC(=O)Nc1ccccc1OCC
